Laboratory results reported in PubChem BioAssay (NCI).
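Test compounds were applied to cells in 96-well plates for 48 hours at 5 doses. Here, GI50 denotes the concentration required for 50% inhibition of growth. TGI: total growth inhibition.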

Assays:
Test in all cases: NCI tumour cell line growth inhibition, 48 h
786-0 renal = system: 786-0 renal
A549 NSCLC = system: A549 NSCLC
ACHN renal = system: ACHN renal
BT-549 breast = system: BT-549 breast
CAKI-1 renal = system: CAKI-1 renal
CCRF-CEM leukemia = system: CCRF-CEM leukemia
COLO 205 colon = system: COLO 205 colon
DU-145 prostate = system: DU-145 prostate
EKVX NSCLC = system: EKVX NSCLC
HCC-2998 colon = system: HCC-2998 colon
HCT-116 colon = system: HCT-116 colon
HCT-15 colon = system: HCT-15 colon
HL-60(TB) leukemia = system: HL-60(TB) leukemia
HOP-62 NSCLC = system: HOP-62 NSCLC
HOP-92 NSCLC = system: HOP-92 NSCLC
HS 578T breast = system: HS 578T breast
HT29 colon = system: HT29 colon
IGROV1 ovarian = system: IGROV1 ovarian
K-562 leukemia = system: K-562 leukemia
KM12 colon = system: KM12 colon
LOX IMVI melanoma = system: LOX IMVI melanoma
M14 melanoma = system: M14 melanoma
MALME-3M melanoma = system: MALME-3M melanoma
MCF7 breast = system: MCF7 breast
MDA-MB-231 breast = system: MDA-MB-231 breast
MDA-MB-435 = system: MDA-MB-435
MOLT-4 leukemia = system: MOLT-4 leukemia
NCI-H226 lung = system: NCI-H226 lung
NCI-H23 lung = system: NCI-H23 lung
NCI-H460 lung = system: NCI-H460 lung
NCI-H522 lung = system: NCI-H522 lung
NCI/ADR-RES ovarian = system: NCI/ADR-RES ovarian
OVCAR-3 ovarian = system: OVCAR-3 ovarian
OVCAR-4 ovarian = system: OVCAR-4 ovarian
OVCAR-5 ovarian = system: OVCAR-5 ovarian
OVCAR-8 ovarian = system: OVCAR-8 ovarian
PC-3 prostate = system: PC-3 prostate
RPMI-8226 leukemia = system: RPMI-8226 leukemia
RXF 393 renal = system: RXF 393 renal
SF-268 CNS = system: SF-268 CNS
SF-295 CNS = system: SF-295 CNS
SF-539 CNS = system: SF-539 CNS
SK-MEL-2 melanoma = system: SK-MEL-2 melanoma
SK-MEL-28 melanoma = system: SK-MEL-28 melanoma
SK-MEL-5 melanoma = system: SK-MEL-5 melanoma
SK-OV-3 ovarian = system: SK-OV-3 ovarian
SN12C renal = system: SN12C renal
SNB-19 CNS = system: SNB-19 CNS
SNB-75 CNS = system: SNB-75 CNS
SR leukemia = system: SR leukemia
SW-620 colon = system: SW-620 colon
T-47D breast = system: T-47D breast
TK-10 renal = system: TK-10 renal
U251 CNS = system: U251 CNS
UACC-257 melanoma = system: UACC-257 melanoma
UACC-62 melanoma = system: UACC-62 melanoma
UO-31 renal = system: UO-31 renal

For `COC1[C@@H]2C[C@H]3C(C)(C)O[C@@](C/C=C(/C)C(=O)O)(C2=O)[C@]32Oc3c(CC=C(C)C)c4c(c(O)c3C(=O)[C@H]12)C=CC(C)(C)O4` (some centres undefined), the GI50 (786-0 renal) was 2.49 µM, the TGI (786-0 renal) was 5.97 µM and the GI50 (A549 NSCLC) was 19.7 µM. For the same compound, the TGI (A549 NSCLC) was 49.9 µM, the GI50 (ACHN renal) was 4.91 µM and the TGI (ACHN renal) was 18.4 µM. For the same compound, the GI50 (BT-549 breast) was 2.47 µM, the TGI (BT-549 breast) was 7.1 µM and the GI50 (CAKI-1 renal) was 16.5 µM. The TGI (CAKI-1 renal) was 33.1 µM, the GI50 (CCRF-CEM leukemia) was 3.73 µM and the TGI (CCRF-CEM leukemia) was 53.1 µM. The GI50 (COLO 205 colon) was 17.2 µM, the TGI (COLO 205 colon) was 40.7 µM and the GI50 (DU-145 prostate) was 13.2 µM. For the same compound, the TGI (DU-145 prostate) was 26.1 µM, the GI50 (EKVX NSCLC) was 10.3 µM and the TGI (EKVX NSCLC) was 28.9 µM. The GI50 (HCC-2998 colon) was 16.8 µM, the TGI (HCC-2998 colon) was 34.4 µM and the GI50 (HCT-116 colon) was 3.07 µM. It also gave a TGI (HCT-116 colon) of 9.71 µM, a GI50 (HCT-15 colon) of 2.97 µM and a TGI (HCT-15 colon) of 13.5 µM. The GI50 (HL-60(TB) leukemia) was 1.53 µM, the TGI (HL-60(TB) leukemia) was 4.99 µM and the GI50 (HOP-62 NSCLC) was 16.3 µM. It also gave a TGI (HOP-62 NSCLC) of 32.4 µM, a GI50 (HOP-92 NSCLC) of 10.1 µM and a TGI (HOP-92 NSCLC) of 25.9 µM. For the same compound, the GI50 (HS 578T breast) was 9.58 µM, the TGI (HS 578T breast) was 78 µM and the GI50 (HT29 colon) was 10.2 µM. The TGI (HT29 colon) was 28.8 µM, the GI50 (IGROV1 ovarian) was 3.27 µM and the TGI (IGROV1 ovarian) was 10.7 µM. For the same compound, the GI50 (K-562 leukemia) was 3.92 µM, the TGI (K-562 leukemia) was 31.4 µM and the GI50 (KM12 colon) was 14.5 µM. For the same compound, the TGI (KM12 colon) was 31.1 µM, the GI50 (LOX IMVI melanoma) was 2.15 µM and the TGI (LOX IMVI melanoma) was 5.31 µM. It also gave a GI50 (M14 melanoma) of 6.57 µM, a TGI (M14 melanoma) of 24.4 µM and a GI50 (MALME-3M melanoma) of 14.2 µM. For the same compound, the TGI (MALME-3M melanoma) was 29.5 µM, the GI50 (MCF7 breast) was 3.22 µM and the TGI (MCF7 breast) was 19.1 µM. It also gave a GI50 (MDA-MB-231 breast) of 6.56 µM, a TGI (MDA-MB-231 breast) of 27.6 µM and a GI50 (MDA-MB-435) of 11.6 µM. It also gave a TGI (MDA-MB-435) of 27.8 µM, a GI50 (MOLT-4 leukemia) of 3.61 µM and a TGI (MOLT-4 leukemia) of 36.8 µM. The GI50 (NCI-H226 lung) was 18.9 µM, the TGI (NCI-H226 lung) was 44.8 µM and the GI50 (NCI-H23 lung) was 16.4 µM. The TGI (NCI-H23 lung) was 50.6 µM, the GI50 (NCI-H460 lung) was 8.15 µM and the TGI (NCI-H460 lung) was 25.8 µM. The GI50 (NCI-H522 lung) was 15.3 µM, the TGI (NCI-H522 lung) was 32.3 µM and the GI50 (NCI/ADR-RES ovarian) was 15.2 µM. For the same compound, the TGI (NCI/ADR-RES ovarian) was > 100 µM, the GI50 (OVCAR-3 ovarian) was 3.77 µM and the TGI (OVCAR-3 ovarian) was 14.9 µM. It also gave a GI50 (OVCAR-4 ovarian) of 12.1 µM, a TGI (OVCAR-4 ovarian) of 29.9 µM and a GI50 (OVCAR-5 ovarian) of 20.1 µM. It also gave a TGI (OVCAR-5 ovarian) of 41.7 µM, a GI50 (OVCAR-8 ovarian) of 6.82 µM and a TGI (OVCAR-8 ovarian) of 29.5 µM. For the same compound, the GI50 (PC-3 prostate) was 6.03 µM, the TGI (PC-3 prostate) was 22.2 µM and the GI50 (RPMI-8226 leukemia) was 2.56 µM. The TGI (RPMI-8226 leukemia) was 8.1 µM, the GI50 (RXF 393 renal) was 4.54 µM and the TGI (RXF 393 renal) was 18.2 µM. The GI50 (SF-268 CNS) was 12.8 µM, the TGI (SF-268 CNS) was 31.7 µM and the GI50 (SF-295 CNS) was 15.3 µM. The TGI (SF-295 CNS) was 34.8 µM, the GI50 (SF-539 CNS) was 14.3 µM and the TGI (SF-539 CNS) was 28.5 µM. For the same compound, the GI50 (SK-MEL-2 melanoma) was 19 µM, the TGI (SK-MEL-2 melanoma) was 42.1 µM and the GI50 (SK-MEL-28 melanoma) was 11.9 µM. For the same compound, the TGI (SK-MEL-28 melanoma) was 26.6 µM, the GI50 (SK-MEL-5 melanoma) was 12.5 µM and the TGI (SK-MEL-5 melanoma) was 25.9 µM. The GI50 (SK-OV-3 ovarian) was 23.4 µM, the TGI (SK-OV-3 ovarian) was 53.4 µM and the GI50 (SN12C renal) was 6.85 µM. The TGI (SN12C renal) was 29.7 µM, the GI50 (SNB-19 CNS) was 15.6 µM and the TGI (SNB-19 CNS) was 30.7 µM. For the same compound, the GI50 (SNB-75 CNS) was 19.2 µM, the TGI (SNB-75 CNS) was 54.3 µM and the GI50 (SR leukemia) was 2.43 µM. The TGI (SR leukemia) was > 100 µM, the GI50 (SW-620 colon) was 3.05 µM and the TGI (SW-620 colon) was 10.8 µM. It also gave a GI50 (T-47D breast) of 3.14 µM, a TGI (T-47D breast) of 17.6 µM and a GI50 (TK-10 renal) of 18.8 µM. For the same compound, the TGI (TK-10 renal) was 33.5 µM, the GI50 (U251 CNS) was 4.35 µM and the TGI (U251 CNS) was 16.1 µM. For the same compound, the GI50 (UACC-257 melanoma) was 14.7 µM, the TGI (UACC-257 melanoma) was 35.8 µM and the GI50 (UACC-62 melanoma) was 13.2 µM. For the same compound, the TGI (UACC-62 melanoma) was 29.4 µM, the GI50 (UO-31 renal) was 6.73 µM and the TGI (UO-31 renal) was 21.3 µM.
